Data on four compounds can be found in publication PMC2711511 (Bioorganic & medicinal chemistry letters, 2008).

For assay [1], the target named is T1, ERα (Homo sapiens, UniProt P03372).
T1 sequence (P03372 1-595): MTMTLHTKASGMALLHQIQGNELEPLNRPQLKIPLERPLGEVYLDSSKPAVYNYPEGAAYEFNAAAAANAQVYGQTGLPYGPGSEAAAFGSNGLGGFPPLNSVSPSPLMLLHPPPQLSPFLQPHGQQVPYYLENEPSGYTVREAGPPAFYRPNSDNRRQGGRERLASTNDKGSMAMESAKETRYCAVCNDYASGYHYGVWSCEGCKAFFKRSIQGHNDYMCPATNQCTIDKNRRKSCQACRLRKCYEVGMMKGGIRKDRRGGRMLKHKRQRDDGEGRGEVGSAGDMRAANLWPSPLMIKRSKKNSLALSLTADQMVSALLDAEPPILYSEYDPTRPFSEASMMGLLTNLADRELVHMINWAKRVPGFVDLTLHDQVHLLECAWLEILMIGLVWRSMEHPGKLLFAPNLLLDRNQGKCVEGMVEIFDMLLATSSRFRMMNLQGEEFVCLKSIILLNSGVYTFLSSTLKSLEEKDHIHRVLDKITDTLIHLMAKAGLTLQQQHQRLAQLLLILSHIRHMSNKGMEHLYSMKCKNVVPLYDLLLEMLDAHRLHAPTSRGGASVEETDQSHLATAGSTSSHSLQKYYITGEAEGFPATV
Conditions: cited from earlier work.

Assay [2] concerns the target T1, ERα. The settings on record: cited from earlier work. This is another data set of the same source.
Assay [3] addresses T1, ERα. Put plainly: estrogen-responsive reporter gene cotransfection assay in HEC-1 cells, ERα. Background: A reporter such as luciferase makes a cellular process visible.
The target of assay [4] is T1, ERα. Briefly: competitive radiometric binding assay, ERα.

Regarding `CCCc1c(-c2ccc(O)cc2)nn(-c2ccc(O)cc2)c1-c1ccc(O)cc1` [PPT, propyl-pyrazole-triol], at ERα [1], the “agonist potency on ERα versus ERβ” value is on record as “ca. 1000 fold”. For the same compound, the “affinity on ERα versus ERβ” value on ERα [2] is reported as “ca. 1000 fold”.

With `Cc1c(-c2ccc(O)cc2)nn(-c2ccc(O)cc2)c1-c1ccc(CCCN2CCCCC2)cc1` [compound 1], on ERα [3], the “ERα partial agonist activity” value was “lacks”. The “ERα selectivity relative to that of the triol agonist MPT” value on ERα [4] is on record as “about 2.3 fold”.

For the compound `Cc1c(-c2ccc(O)cc2)nn(-c2ccc(O)cc2)c1-c1ccc(/C=C/C(=O)N2CCCCC2)cc1` [compound 2], at ERα [4] (compared with MPP and 1), the “binding (in words)” value is “markedly lower”.

Take `Cc1c(-c2ccc(O)cc2)nn(-c2ccc(O)cc2)c1-c1ccc(OCCN2CCCCC2)cc1` [MPP, Methyl-piperidino-pyrazole]: at ERα [3], the “ERα partial agonist activity” value is “residual, low ERα partial agonist activity”.
